{
  "source": "ChEMBL document CHEMBL2440042",
  "about": "“Anti-proliferative activity of hydnocarpin, a natural lignan, is associated with the suppression of Wnt/β-catenin signaling pathway in colon cancer cells” (Bioorg Med Chem Lett, 2013)",
  "key": {"[1]": {"test_system": "SW480", "assay": "Inhibition of Wnt/beta-catenin signaling pathway in human SW480 cells assessed as beta-catenin protein expression at 10 uM after 12 hrs by Western blotting analysis relative to vehicle-treated control"}, "[2]": {"test_system": "SW480", "assay": "Inhibition of Wnt/beta-catenin signaling pathway in human SW480 cells assessed as beta-catenin protein expression at 5 uM after 12 hrs by Western blotting analysis relative to vehicle-treated control"}, "[3]": {"test_system": "HEK293", "assay": "Inhibition of Wnt/beta-catenin signaling pathway in human HEK293 cells at 20 uM after 24 hrs by dual luciferase reporter gene assay relative to vehicle-treated control", "settings": "HEK293, 24 h"}, "[4]": {"test_system": "HEK293", "assay": "Inhibition of Wnt/beta-catenin signaling pathway in human HEK293 cells after 24 hrs by dual luciferase reporter gene assay relative to vehicle-treated control", "format": "cell-based"}, "[5]": {"test_system": "SW480", "assay": "Inhibition of Wnt/beta-catenin signaling pathway in human SW480 cells after 24 hrs by FOPflash luciferase reporter gene assay relative to vehicle-treated control", "format": "cell-based"}, "[6]": {"test_system": "SW480", "assay": "Antiproliferative activity against human SW480 cells assessed as growth inhibition after 72 hrs by SRB assay", "format": "functional, cell-based", "settings": "SW480, 72 h"}, "[7]": {"test_system": "SW480", "assay": "Inhibition of Wnt/beta-catenin signaling pathway in human SW480 cells assessed as increase in phosphorylation of beta-catenin at Ser45 after 12 hrs by Western blotting analysis relative to vehicle-treated control", "format": "cell-based"}, "[8]": {"test_system": "SW480", "assay": "Inhibition of Wnt/beta-catenin signaling pathway in human SW480 cells assessed as increase in phosphorylation of beta-catenin at Ser45 at 20 uM after 12 hrs by Western blotting analysis relative to vehicle-treated control"}, "[9]": {"test_system": "SW480", "assay": "Inhibition of Wnt/beta-catenin signaling pathway in human SW480 cells assessed as dvl1 protein expression at 5 uM after 12 hrs by Western blotting analysis relative to vehicle-treated control"}, "[10]": {"test_system": "SW480", "assay": "Inhibition of Wnt/beta-catenin signaling pathway in human SW480 cells assessed as dvl1 protein expression at 10 uM after 12 hrs by Western blotting analysis relative to vehicle-treated control"}, "[11]": {"test_system": "SW480", "assay": "Inhibition of Wnt/beta-catenin signaling pathway in human SW480 cells assessed as dvl3 protein expression at 10 uM after 12 hrs by Western blotting analysis relative to vehicle-treated control"}, "[12]": {"test_system": "SW480", "assay": "Inhibition of Wnt/beta-catenin signaling pathway in human SW480 cells assessed as dvl3 protein expression at 20 uM after 12 hrs by Western blotting analysis relative to vehicle-treated control"}, "[13]": {"test_system": "SW480", "assay": "Inhibition of Wnt/beta-catenin signaling pathway in human SW480 cells assessed as CK1-alpha protein expression at 5 uM after 12 hrs by Western blotting analysis relative to vehicle-treated control"}, "[14]": {"test_system": "SW480", "assay": "Inhibition of Wnt/beta-catenin signaling pathway in human SW480 cells assessed as beta-catenin protein expression at 5 uM after 24 hrs by Immunoblotting analysis relative to vehicle-treated control"}, "[15]": {"test_system": "SW480", "assay": "Inhibition of Wnt/beta-catenin signaling pathway in human SW480 cells assessed as beta-catenin protein expression at 10 uM after 24 hrs by Immunoblotting analysis relative to vehicle-treated control"}, "[16]": {"test_system": "SW480", "assay": "Inhibition of Wnt/beta-catenin signaling pathway in human SW480 cells assessed as Axin2 protein expression at 5 uM after 24 hrs by Immunoblotting analysis relative to vehicle-treated control"}, "[17]": {"test_system": "SW480", "assay": "Inhibition of Wnt/beta-catenin signaling pathway in human SW480 cells assessed as Axin1 protein expression at 5 uM after 12 hrs by Western blotting analysis relative to vehicle-treated control"}, "[18]": {"test_system": "SW480", "assay": "Inhibition of Wnt/beta-catenin signaling pathway in human SW480 cells assessed as Axin2 protein expression at 5 uM after 12 hrs by Western blotting analysis relative to vehicle-treated control"}, "[19]": {"test_system": "SW480", "assay": "Inhibition of Wnt/beta-catenin signaling pathway in human SW480 cells assessed as Axin2 protein expression at 10 uM after 12 hrs by Western blotting analysis relative to vehicle-treated control"}, "[20]": {"test_system": "SW480", "assay": "Inhibition of Wnt/beta-catenin signaling pathway in human SW480 cells assessed as beta-catenin protein expression at 5 uM after 24 hrs by Western blotting analysis relative to vehicle-treated control"}, "[21]": {"test_system": "SW480", "assay": "Inhibition of Wnt/beta-catenin signaling pathway in human SW480 cells assessed as beta-catenin protein expression at 10 uM after 24 hrs by Western blotting analysis relative to vehicle-treated control"}, "[22]": {"test_system": "SW480", "assay": "Inhibition of Wnt/beta-catenin signaling pathway in human SW480 cells assessed as phosphorylated (S45) beta-catenin protein expression at 5 uM after 24 hrs by Western blotting analysis relative to vehicle-treated control"}, "[23]": {"test_system": "SW480", "assay": "Inhibition of Wnt/beta-catenin signaling pathway in human SW480 cells assessed as phosphorylated (S45) beta-catenin protein expression at 10 uM after 24 hrs by Western blotting analysis relative to vehicle-treated control"}, "[24]": {"test_system": "SW480", "assay": "Inhibition of Wnt/beta-catenin signaling pathway in human SW480 cells assessed as phosphorylated (S45) beta-catenin protein expression at 20 uM after 24 hrs by Western blotting analysis relative to vehicle-treated control"}, "[25]": {"test_system": "SW480", "assay": "Inhibition of Wnt/beta-catenin signaling pathway in human SW480 cells assessed as dvl1 protein expression at 10 uM after 24 hrs by Western blotting analysis relative to vehicle-treated control"}, "[26]": {"test_system": "SW480", "assay": "Inhibition of Wnt/beta-catenin signaling pathway in human SW480 cells assessed as dvl2 protein expression at 10 uM after 24 hrs by Western blotting analysis relative to vehicle-treated control"}, "[27]": {"test_system": "SW480", "assay": "Inhibition of Wnt/beta-catenin signaling pathway in human SW480 cells assessed as dvl3 protein expression at 5 uM after 24 hrs by Western blotting analysis relative to vehicle-treated control"}, "[28]": {"test_system": "SW480", "assay": "Inhibition of Wnt/beta-catenin signaling pathway in human SW480 cells assessed as dvl3 protein expression at 20 uM after 24 hrs by Western blotting analysis relative to vehicle-treated control"}, "[29]": {"test_system": "SW480", "assay": "Inhibition of Wnt/beta-catenin signaling pathway in human SW480 cells assessed as CK1-alpha protein expression at 10 uM after 24 hrs by Western blotting analysis relative to vehicle-treated control"}, "[30]": {"test_system": "SW480", "assay": "Inhibition of Wnt/beta-catenin signaling pathway in human SW480 cells assessed as Axin1 protein expression at 5 uM after 24 hrs by Western blotting analysis relative to vehicle-treated control"}, "[31]": {"test_system": "SW480", "assay": "Inhibition of Wnt/beta-catenin signaling pathway in human SW480 cells assessed as Axin1 protein expression at 10 uM after 24 hrs by Western blotting analysis relative to vehicle-treated control"}, "[32]": {"test_system": "SW480", "assay": "Inhibition of Wnt/beta-catenin signaling pathway in human SW480 cells assessed as Axin2 protein expression at 5 uM after 24 hrs by Western blotting analysis relative to vehicle-treated control"}, "[33]": {"test_system": "SW480", "assay": "Inhibition of Wnt/beta-catenin signaling pathway in human SW480 cells assessed as Axin2 protein expression at 10 uM after 24 hrs by Western blotting analysis relative to vehicle-treated control"}, "[34]": {"test_system": "SW480", "assay": "Inhibition of Wnt/beta-catenin signaling pathway in human SW480 cells assessed as Axin1 protein expression at 5 uM after 24 hrs by Immunoblotting analysis relative to vehicle-treated control"}, "[35]": {"test_system": "SW480", "assay": "Inhibition of Wnt/beta-catenin signaling pathway in human SW480 cells assessed as Axin1 protein expression at 10 uM after 24 hrs by Immunoblotting analysis relative to vehicle-treated control"}},
  "note": "Activity calls are given as the source filed them. The rule behind the calls is not given here.",
  "data": [
    {"smiles": "COc1cc([C@H]2Oc3ccc(-c4cc(=O)c5c(O)cc(O)cc5o4)cc3O[C@@H]2CO)ccc1O", "note": "(relative stereo)", "values": [
      {"measurement": "fold change (FC)", "setting": "[1]", "value": 0.7},
      {"measurement": "fold change (FC)", "setting": "[2]", "value": 0.8},
      {"measurement": "inhibition at 20 µM", "setting": "[3]", "value": 61.6, "unit": "%"},
      {"measurement": "inhibition", "setting": "[4]", "value": "Dose-dependent effect"},
      {"measurement": "inhibition", "setting": "[5]", "value": "inactive"},
      {"measurement": "IC50", "setting": "[6]", "value": 20.3, "unit": "µM"},
      {"measurement": "inhibition", "setting": "[7]", "value": "Dose-dependent effect"},
      {"measurement": "fold change (FC)", "setting": "[8]", "value": 4.9},
      {"measurement": "fold change (FC)", "setting": "[9]", "value": 1.2},
      {"measurement": "fold change (FC)", "setting": "[10]", "value": 1},
      {"measurement": "fold change (FC)", "setting": "[11]", "value": 1},
      {"measurement": "fold change (FC)", "setting": "[12]", "value": 1.1},
      {"measurement": "fold change (FC)", "setting": "[13]", "value": 0.9},
      {"measurement": "fold change (FC)", "setting": "[14]", "value": 0.8},
      {"measurement": "fold change (FC)", "setting": "[15]", "value": 0.7},
      {"measurement": "fold change (FC)", "setting": "[16]", "value": 1},
      {"measurement": "fold change (FC)", "setting": "[17]", "value": 1.9},
      {"measurement": "fold change (FC)", "setting": "[18]", "value": 1},
      {"measurement": "fold change (FC)", "setting": "[19]", "value": 3.4},
      {"measurement": "fold change (FC)", "setting": "[20]", "value": 0.8},
      {"measurement": "fold change (FC)", "setting": "[21]", "value": 0.8},
      {"measurement": "fold change (FC)", "setting": "[22]", "value": 1.4},
      {"measurement": "fold change (FC)", "setting": "[23]", "value": 2.1},
      {"measurement": "fold change (FC)", "setting": "[24]", "value": 2.4},
      {"measurement": "fold change (FC)", "setting": "[25]", "value": 1},
      {"measurement": "fold change (FC)", "setting": "[26]", "value": 1.2},
      {"measurement": "fold change (FC)", "setting": "[27]", "value": 1.2},
      {"measurement": "fold change (FC)", "setting": "[28]", "value": 1.1},
      {"measurement": "fold change (FC)", "setting": "[29]", "value": 1.2},
      {"measurement": "fold change (FC)", "setting": "[30]", "value": 1.7},
      {"measurement": "fold change (FC)", "setting": "[31]", "value": 3.5},
      {"measurement": "fold change (FC)", "setting": "[32]", "value": 1.8},
      {"measurement": "fold change (FC)", "setting": "[33]", "value": 3.2},
      {"measurement": "fold change (FC)", "setting": "[34]", "value": 1.4},
      {"measurement": "fold change (FC)", "setting": "[35]", "value": 1.5}
    ]}
  ]
}
